This is an account of results in EP0232017A1 (priority 1986, dated 1987).

The subject of this experiment is anaerobes and Gram positive aerobes. In kind it is cell-based. Conditions: dipped-disc Biospectrum assay at 1 mg/ml; result in words, zone sizes only in image Tables XIII-XV.

`CCCC(=O)N1CC(C(C)C)C1=O` (stereo not drawn) [2-azetidinone, 3-(1-methylethyl)-1-(1-oxobutyl)-]: the “activity vs. anaerobes and Gram positive aerobes” value is listed as “high activity”.
Turning to `CC(=O)N1CC(C(C)C)C1=O` (racemic) [2-azetidinone, 1-acetyl-3-(1-methylethyl)-, (±)-], the “activity vs. anaerobes and Gram positive aerobes” value is “high activity”.
On to `CCCCCC(=O)N1CC(C(C)C)C1=O` (stereo not drawn) [2-azetidinone, 3-(1-methylethyl)-1-(1-oxohexyl)-], for which the “activity vs. anaerobes and Gram positive aerobes” value was “high activity”.
In the case of `CCCCC(=O)N1CC(C(C)C)C1=O` (racemic) [2-azetidinone, 3-(1-methylethyl)-1-(1-oxopentyl)-, (±)-], the “activity vs. anaerobes and Gram positive aerobes” value is “high activity”.
Regarding `CCCCCCCC(=O)N1CC(C(C)C)C1=O` (racemic) [2-azetidinone, 3-(1-methlethyl)-1-(oxooctyl)-, (±)-], the “activity vs. anaerobes and Gram positive aerobes” value is listed as “high activity”.
As for `CCCCCC(=O)N1C(=O)[C@@H]2CCCC[C@@H]21` (relative stereo) [Example 94, N-Hexanoyl-cis-3,4-tetramethylene-2-azetidinone], the “activity vs. anaerobes and Gram positive aerobes” value was “high activity”.
